{"source": "patent US4415730A", "about": "“19-Deformyl-deoxy-desmycosin” (priority 1981, dated 1983)", "assay_type_in_all_cases": "cell-based", "key": {"[1]": {"test_system": "Staphylococcus aureus ATCC 6538P", "experiment": "MIC, Staphylococcus aureus ATCC 6538P", "conditions": "ATCC6538P"}, "[2]": {"test_system": "Streptococcus pyogenes N.Y.5", "experiment": "MIC, Streptococcus pyogenes N.Y.5"}, "[3]": {"test_system": "Staphylococcus aureus 0116", "experiment": "MIC, Staphylococcus aureus 0116", "source_text": "(§1) *Macrolide antibioticsresistant A group strain (clinical isolates of\n(§2) erythromycin, oleandomycin and 16member-ring-macrolide-resistant strain)"}, "[4]": {"test_system": "Staphylococcus aureus 0127", "experiment": "MIC, Staphylococcus aureus 0127", "source_text": "as §1, §2"}, "[5]": {"test_system": "Staphylococcus aureus MS353AO", "experiment": "MIC, Staphylococcus aureus MS353AO", "source_text": "as §1, §2"}, "[6]": {"test_system": "Streptococcus pyogenes 1022", "experiment": "MIC, Streptococcus pyogenes 1022"}, "[7]": {"test_system": "Staphylococcus aureus MS353", "experiment": "MIC, Staphylococcus aureus MS353"}, "[8]": {"test_system": "Staphylococcus aureus 0119", "experiment": "MIC, Staphylococcus aureus 0119", "source_text": "as §1, §2"}, "[9]": {"conditions": "Staphylococcus aureus 0116, macrolide-resistant A group strain, clinical isolate, read-out: MIC"}, "[10]": {"conditions": "Staphylococcus aureus 0127, macrolide-resistant A group strain, clinical isolate, read-out: MIC"}, "[11]": {"conditions": "Staphylococcus aureus 0119, macrolide-resistant A group strain, clinical isolate, read-out: MIC"}}, "note": "Read-outs that look alike come from different tables or passages of the source.", "data": [{"smiles": "CCC1OC(=O)CC(O)C(C)C(OC2OC(C)C(O)C(N(C)C)C2O)C(CC=O)CC(C)C(=O)/C=C/C(C)=C/C1COC1OC(C)C(O)C(OC)C1OC", "note": "(stereo not shown) [descomycin, 4'-demycarosyl tylosin]", "values": [{"measurement": "MIC", "setting": "[1]", "value": 0.8, "unit": "µg/mL"}, {"measurement": "MIC", "setting": "[2]", "value": "≤ 0.05", "unit": "µg/mL"}, {"measurement": "MIC", "setting": "[3]; [9]", "value": 3.1, "unit": "µg/mL"}, {"measurement": "MIC", "setting": "[4]; [10]", "value": "> 100", "unit": "µg/mL"}, {"measurement": "MIC", "setting": "[5]; Staphylococcus aureus, MS353AO", "value": "> 100", "unit": "µg/mL"}, {"measurement": "MIC", "setting": "[6]; read-out: MIC", "value": "> 100", "unit": "µg/mL"}, {"measurement": "MIC", "setting": "[7]", "value": 0.8, "unit": "µg/mL"}, {"measurement": "MIC", "setting": "[8]; [11]", "value": "> 100", "unit": "µg/mL"}]}, {"smiles": "CO[C@@H]1[C@@H](O[C@@H]2O[C@H](C)[C@@H](O[C@H]3C[C@@](C)(O)[C@@H](OC(=O)CC(C)C)[C@H](C)O3)[C@H](N(C)C)[C@H]2O)[C@@H](CC=O)C[C@@H](C)[C@@H](O)/C=C/C=C/C[C@@H](C)OC(=O)C[C@H]1OC(C)=O", "note": "[josamycin]", "values": [{"measurement": "MIC", "setting": "[1]", "value": 0.4, "unit": "µg/mL"}, {"measurement": "MIC", "setting": "[2]", "value": "≤ 0.05", "unit": "µg/mL"}, {"measurement": "MIC", "setting": "[3]; [9]", "value": "> 100", "unit": "µg/mL"}, {"measurement": "MIC", "setting": "[4]; [10]", "value": "> 100", "unit": "µg/mL"}, {"measurement": "MIC", "setting": "[5]; Staphylococcus aureus, MS353AO", "value": "> 100", "unit": "µg/mL"}, {"measurement": "MIC", "setting": "[6]; read-out: MIC", "value": "> 100", "unit": "µg/mL"}, {"measurement": "MIC", "setting": "[7]", "value": 0.8, "unit": "µg/mL"}, {"measurement": "MIC", "setting": "[8]; [11]", "value": "> 100", "unit": "µg/mL"}]}, {"smiles": "CCC1OC(=O)CC(O)C(C)C(OC2OC(C)CC(N(C)C)C2O)C(C)CC(C)C(=O)C=CC(C)=CC1COC1OC(C)C(O)C(OC)C1OC", "note": "(stereo not shown) [Compound [1] R1 = H, 19-deformyl-4'-deoxy-desmycosin]", "values": [{"measurement": "MIC", "setting": "[1]", "value": "≤ 0.05", "unit": "µg/mL"}, {"measurement": "MIC", "setting": "[2]", "value": "≤ 0.05", "unit": "µg/mL"}, {"measurement": "MIC", "setting": "[3]; [9]", "value": 0.8, "unit": "µg/mL"}, {"measurement": "MIC", "setting": "[4]; [10]", "value": "> 100", "unit": "µg/mL"}, {"measurement": "MIC", "setting": "[5]; Staphylococcus aureus, MS353AO", "value": 0.8, "unit": "µg/mL"}, {"measurement": "MIC", "setting": "[6]", "value": "> 100", "unit": "µg/mL"}, {"measurement": "MIC", "setting": "[7]", "value": "≤ 0.05", "unit": "µg/mL"}, {"measurement": "MIC", "setting": "[8]; [11]", "value": "> 100", "unit": "µg/mL"}]}, {"smiles": "CC[C@H]1OC(=O)[C@H](C)[C@@H](O[C@H]2C[C@@](C)(OC)[C@@H](O)[C@H](C)O2)[C@H](C)[C@@H](O[C@@H]2O[C@H](C)C[C@H](N(C)C)[C@H]2O)[C@](C)(O)C[C@@H](C)C(=O)[C@H](C)[C@@H](O)[C@]1(C)O", "note": "[erythromycin]", "values": [{"measurement": "MIC", "setting": "[1]", "value": "≤ 0.05", "unit": "µg/mL"}, {"measurement": "MIC", "setting": "[2]", "value": "≤ 0.05", "unit": "µg/mL"}, {"measurement": "MIC", "setting": "[3]; Staphylococcus aureus, 0116", "value": "> 100", "unit": "µg/mL"}, {"measurement": "MIC", "setting": "[4]; Staphylococcus aureus, 0127", "value": "> 100", "unit": "µg/mL"}, {"measurement": "MIC", "setting": "[5]; Staphylococcus aureus MS353AO, macrolide-resistant A group strain, clinical isolate, read-out: MIC", "value": "> 100", "unit": "µg/mL"}, {"measurement": "MIC", "setting": "[6]", "value": "> 100", "unit": "µg/mL"}, {"measurement": "MIC", "setting": "[7]", "value": 0.1, "unit": "µg/mL"}, {"measurement": "MIC", "setting": "[8]; Staphylococcus aureus, 0119", "value": "> 100", "unit": "µg/mL"}]}, {"smiles": "CCC1OC(=O)CC(O)C(C)C(OC2OC(C)C(O)C(N(C)C)C2O)C(C)CC(C)C(=O)C=CC(C)=CC1COC1OC(C)CC(OC)C1OC", "note": "(stereo not shown) [Compound [1] R1 = OH, 19-deformyl-4\"-deoxy-desmycosin]", "values": [{"measurement": "MIC", "setting": "[1]", "value": 0.1, "unit": "µg/mL"}, {"measurement": "MIC", "setting": "[2]", "value": "≤ 0.05", "unit": "µg/mL"}, {"measurement": "MIC", "setting": "[3]; [9]", "value": 3.1, "unit": "µg/mL"}, {"measurement": "MIC", "setting": "[4]; Staphylococcus aureus, 0127", "value": 6.3, "unit": "µg/mL"}, {"measurement": "MIC", "setting": "[5]; Staphylococcus aureus, MS353AO", "value": 25, "unit": "µg/mL"}, {"measurement": "MIC", "setting": "[6]; read-out: MIC", "value": 25, "unit": "µg/mL"}, {"measurement": "MIC", "setting": "[7]", "value": "≤ 0.05", "unit": "µg/mL"}, {"measurement": "MIC", "setting": "[8]; [11]", "value": 12.5, "unit": "µg/mL"}]}]}
